Assay [1] relates to Phenylquinone (PQ) Writhing. Put plainly: Phenylquinone (PQ) writhing. In kind it is in vivo, mice. As to conditions: for effect on the analgesia (pain relief effects) of aspirin: interaction term p. <.001; for writhing response, means: two-vehicle combination set at zero; for P.Q. WRITHING (INH. %) ± SEM: mice. As for the experimental part:
The test sample is administered orally (mg/kg) to a group of 8 mice one hour before injection of PQ (2 mg/kg intraperitonilly). Greater than 50 percent (>50) inhibition of the number of writhes per group of animals observed during 5 to 10 minutes after PQ, relative to a vehicle treated group, indicates possible analgesic activity. [Irwin, Samuel, Psychopharmacologia, 13:22-257, 1968.] A test was conducted using alpha-tocopherol and aspirin. […] All dosing was done orally (PO). […] Again the writhing response was set at zero for the two-vehicle combination.
(In writhing tests, fewer writhes than in controls are read as antinociception.)

For the next assay, the system named is paw edema. Put plainly: Carrageenan paw edema, anti-inflammatory test. The note with it: rats, p.o., 3 hrs after carrageenan. A general note: Carrageenan injected into the paw causes an acute inflammation.
Assay [2] relates to Prostaglandin and hydroxyicosatetraenoic acid (HETE) production. As to conditions: bovine seminal vesicles and kidney; cited from earlier work.

Entries after “also recorded” stand apart in the source; their conditions may differ.

Regarding `Cc1c(C)c2c(c(C)c1O)CCC(C)(CCCC(C)CCCC(C)CCCC(C)C)O2` (stereo not drawn) [Alpha-tocopherol, alpha-tocopherol], the “effect on the analgesia (pain relief effects) of aspirin” value is on record as “antagonizes the pain relief effects of aspirin; also recorded: antagonism to the analgesia of aspirin” in assay [1] (PO) and “significant antagonistic effect” in assay [1] (PO, listed as Vitamin E). The “writhing response, means” value in assay [1] (aspirin Veh., Vitamin E 100 mg.) turned out to be 1; in assay [1] (aspirin Veh., Vitamin E 300 mg.), 2. In addition, the “P.Q. WRITHING (INH. %) ± SEM” value in assay [1] (PO, A₀ aspirin vehicle + E₁ alpha-tocopherol 300mg/kg) was determined as 3 ± 1%; in assay [1] (PO, A₀ aspirin vehicle + E₂ alpha-tocopherol 100mg/kg), 1 ± 1%; in assay [1] (PO, A₀ aspirin vehicle + E₃ alpha-tocopherol 30 mg/kg) it was 3 ± 1%; in assay [1] (PO, A₀ aspirin vehicle + E₅ alpha-tocopherol 3 mg/kg), 3 ± 1%.

Regarding `CC1=C(/C=C/C(C)=C/C=C/C(C)=C/C=C/C=C(C)/C=C/C=C(C)/C=C/C2=C(C)CCCC2(C)C)C(C)(C)CCC1` [β-Carotene, ß-carotene], the “Mean Paw Volumes” value in the assay with paw edema (A0 aspirin vehicle + B1 ß-carotene 10 mg/kg) was 86.0(.24) ml. x 10^-2; in the assay on paw edema (A0 aspirin vehicle + B2 ß-carotene 30 mg/kg), 86.5(.14) ml. x 10^-2; with paw edema (A0 aspirin vehicle + B3 ß-carotene 100 mg/kg) it was 81.6(.16) ml. x 10^-2; with paw edema (A0 aspirin vehicle + B4 ß-carotene 300 mg/kg) it was 81.9(.21) ml. x 10^-2. The “Prostaglandin and hydroxyicosatetraenoic acid (HETE) production” value in assay [2] is “considerably inhibited”.

Take `CC(=O)Oc1ccccc1C(=O)O` [Aspirin, aspirin]: the ED20 in assay [1] (Mus musculus, PO, also used as dose level A₁, read-out: ED₂₀) was 8.3 mg/kg. In assay [1] (Mus musculus, PO, also used as dose level A₂, read-out: ED₅₀), the ED50 is 25 mg/kg. The ED80 in assay [1] (Mus musculus, PO, also used as dose level A₃, read-out: ED₈₀) is 75 mg/kg. The “writhing response, means” value is reported as 20 in assay [1] (aspirin ED20, Vitamin E Vehicle); 48 in assay [1] (aspirin ED50, Vitamin E Vehicle); 85 in assay [1] (aspirin ED80, Vitamin E Vehicle). Besides, the “P.Q. WRITHING (INH. %) ± SEM” value in assay [1] (PO, A₁ aspirin 8.3 mg/kg + E₀ alpha-tocopherol vehicle) was 20 ± 1%; in assay [1] (PO, A₂ aspirin 25 mg/kg + E₀ alpha-tocopherol vehicle) it was 48 ± 2%; in assay [1] (PO, A₃ aspirin 75 mg/kg + E₀ alpha-tocopherol vehicle), 85 ± 2%. Also, the “Mean Paw Volumes” value in the assay on paw edema (A1 aspirin 10 mg/kg + B0 ß-carotene vehicle) stood at 79.1 ml. x 10^-2; with paw edema (A2 aspirin 30 mg/kg + B0 ß-carotene vehicle) it was 73.9 ml. x 10^-2; in the assay with paw edema (A3 aspirin 100 mg/kg + B0 ß-carotene vehicle) it was 58.9 ml. x 10^-2; in the assay with paw edema (A4 aspirin 300 mg/kg + B0 ß-carotene vehicle), 38.8 ml. x 10^-2.

With `CC1=C(/C=C/C(C)=C/C=C/C(C)=C/CO)C(C)(C)CCC1` [retinol], in assay [2], the “Prostaglandin and hydroxyicosatetraenoic acid (HETE) production” value is “considerably inhibited”.

These data come from patent EP0505841A2, “Analgesic composition containing beta-carotene” (MILES INC., priority 1991, dated 1992).
